Measured values from patent US20230142739A1, “PROTEIN-PROTEIN INTERACTION STABILIZERS” (The Regents of the University of California, priority 2020, published 2023).

What was measured:
Type in all cases: binding
[1] = molecular target: T1, 14-3-3/Pin1_72 complex (Homo sapiens, UniProt P61981); experiment: Cooperativity analysis, 14-3-3 titrations at varied constant fragment concentration
T1 construct: the full length 14-3-3γ was dialysis against 25 mM HEPES pH 7.5; made in house; host or cells: E. coli BL21(DE3), pPROEX HTb
Source text: Cooperativity in ternary complex formation. In contrast to PPI inhibition, where affinity to one of the protein pockets is the driving force for drug development, design of molecular glues is driven by cooperative ternary complex formation. Both CC50 and SF values are concentration dependent values and might differ based on assay design. […] Cooperative complex formation is often accompanied by structural changes of the interface of a complex which translates to increased stability of the ternary com-plex. In order to assess cooperativity of the ternary complex, fragments 13, 23, 27 and 28 were selected for cooper-activity analysis. The α-factor of the fragments were determined using 14-3-3 titrations in the presence of varied, but constant concentration of fragment in a dose-dependent manner. […] Further, the interval of change in stabilization further describes the systems cooperative behaviour.
However, at higher concentration regimes significant assay interference was observed, probably due to compound aggregation. Fragments 23, 27 and 28 all reached saturation or approached saturation enabling accurate determination of α-factor. […] KD remains constant also at higher concentrations of FC-A, indicating non-specific effects.

[2] = molecular target: T2, C-Raf peptide/14-3-3 (Homo sapiens, UniProt P61981); experiment: Selectivity screening FA, C-Raf peptide; conditions: 100 μM fragment
T2 construct: the full length 14-3-3γ was dialysis against 25 mM HEPES pH 7.5; made in house; host or cells: E. coli BL21(DE3), pPROEX HTb
Source text: (§1) Selectivity screening of covalent fragments. Drugging the hub protein 14-3-3 raises the challenge of selectivity. We hypothesized that the high level of cooperative behavior for 14-3-3/Pin1_72/28 complex is a function of the unique functionality and topology of the interface, specifically the +1 and +3 amino acid of Pin1_72 with the covalent fragment. We further rationalized that this cooperativity would likely translate to high selectivity. To test this hypothesis, fragments 13, 27 and 28 were screened at a single fragment concentration (100 μM) against a panel of 13 peptides as diverse representatives of 14-3-3 client proteins, differing in size and hydrophobicity of the +1 amino acid (FIG. 22A).
(§2) Fluorescence Anisotropy (FA) Assays.

[3] = molecular target: T3, B-Raf_729 peptide/14-3-3 (Homo sapiens, UniProt P61981); experiment: Selectivity screening FA, B-Raf_729 peptide; conditions: 100 μM fragment
T3 construct: the full length 14-3-3γ was dialysis against 25 mM HEPES pH 7.5; made in house; host or cells: E. coli BL21(DE3), pPROEX HTb
Source text: as §1, §2

[4] = molecular target: T4, TBC1D237 peptide/14-3-3 (Homo sapiens, UniProt P61981); experiment: Selectivity screening FA, TBC1D237 peptide; conditions: 100 μM fragment
T4 construct: the full length 14-3-3γ was dialysis against 25 mM HEPES pH 7.5; made in house; host or cells: E. coli BL21(DE3), pPROEX HTb
Source text: as §1, §2

[5] = molecular target: T5, ERRγ_179 peptide/14-3-3 (Homo sapiens, UniProt P61981); experiment: Selectivity screening FA, ERRγ_179 peptide; conditions: 100 μM fragment
T5 construct: the full length 14-3-3γ was dialysis against 25 mM HEPES pH 7.5; made in house; host or cells: E. coli BL21(DE3), pPROEX HTb
Source text: as §1, §2

[6] = molecular target: T6, Mypt1_472 peptide/14-3-3 (Homo sapiens, UniProt P61981); experiment: Selectivity screening FA, Mypt1_472 peptide; conditions: 100 μM fragment
T6 construct: the full length 14-3-3γ was dialysis against 25 mM HEPES pH 7.5; made in house; host or cells: E. coli BL21(DE3), pPROEX HTb
Source text: as §1, §2

[7] = molecular target: T7, 14-3-3/ERα complex (Homo sapiens, UniProt P61981); experiment: Selectivity screening FA, ERα peptide; conditions: 100 μM fragment
T7 construct: the full length 14-3-3γ was dialysis against 25 mM HEPES pH 7.5; made in house; host or cells: E. coli BL21(DE3), pPROEX HTb
T7 sequence (P61981 1-247): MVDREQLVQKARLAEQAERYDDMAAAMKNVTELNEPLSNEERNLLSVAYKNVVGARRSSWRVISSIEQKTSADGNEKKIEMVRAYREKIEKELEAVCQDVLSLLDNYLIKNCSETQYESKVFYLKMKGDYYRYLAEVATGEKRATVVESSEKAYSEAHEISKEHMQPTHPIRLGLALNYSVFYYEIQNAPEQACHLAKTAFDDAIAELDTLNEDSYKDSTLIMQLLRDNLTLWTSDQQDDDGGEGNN
Source text: as §1, §2

[8] = molecular target: T8, Raptor/14-3-3γ binary complex (Homo sapiens, UniProt P61981); experiment: Selectivity screening FA, Raptor peptide; conditions: 100 μM fragment
T8 construct: the full length 14-3-3γ was dialysis against 25 mM HEPES pH 7.5; made in house; host or cells: E. coli BL21(DE3), pPROEX HTb
Source text: as §1
Following the importance of the tryptophan for complex stabilization of Pin1_72/14-3-3γ with the benzaldehydes, the influence of phenylalanine (AS160) and tyrosine (Raptor) were investigated (FIGS. 22A-22B). […] Unlike Pin1_72, the C-terminus of AS160 engages Phe+1 in intramolecular hydrophobic contacts with Pro+4 and Pro+5. The +1 phenylalanine likely cannot rearrange to allow fragment binding.
as §2

[9] = molecular target: T9, Abl1pT735/14-3-3 (Homo sapiens, UniProt P61981); experiment: Selectivity screening FA, Abl1pT735 peptide; conditions: 100 μM fragment
T9 construct: the full length 14-3-3γ was dialysis against 25 mM HEPES pH 7.5; made in house; host or cells: E. coli BL21(DE3), pPROEX HTb
Description: (§3) Selectivity screening of covalent fragments. Drugging the hub protein 14-3-3 raises the challenge of selectivity.
(§4) This was investigated by comparing the effect of 13, 27 and 28 on 14-3-3 interaction partners with a leucine (Abl1pT735), isoleucine (p65pS45), or valine (CFTRpS753) at the +1 position.
(§5) Fluorescence Anisotropy (FA) Assays. […] All FA assays were measured in FA buffer (10 mM HEPES pH 7.4, 150 mM NaCl, 0.1% Tween20, 1% BSA) in Corning 384 well plates (black, round bottom, low binding). Plates were incubated overnight prior to anisotropy measurements with the Tecan Infinite 500 plate reader (λexcitation=485 nm, λemission=535 nm).

[10] = molecular target: T10, p65pS45/14-3-3 (Homo sapiens, UniProt P61981); experiment: Selectivity screening FA, p65pS45 peptide; conditions: 100 μM fragment
T10 construct: the full length 14-3-3γ was dialysis against 25 mM HEPES pH 7.5; made in house; host or cells: E. coli BL21(DE3), pPROEX HTb
T10 sequence (as listed by the source partner, one chain of several): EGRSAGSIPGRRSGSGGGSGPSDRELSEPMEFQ
Description: as §3, §4, §5

[11] = molecular target: T11, CFTRpS753/14-3-3 (Homo sapiens, UniProt P61981); experiment: Selectivity screening FA, CFTRpS753 peptide; conditions: 100 μM fragment
T11 construct: the full length 14-3-3γ was dialysis against 25 mM HEPES pH 7.5; made in house; host or cells: E. coli BL21(DE3), pPROEX HTb
T11 sequence (P13569 747-774 partner limits assumed, one chain of several): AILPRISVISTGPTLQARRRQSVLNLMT
Description: as §3, §4, §5

[12] = molecular target: T12, Pin1_72/14-3-3γ (Homo sapiens, UniProt P61981+Q13526); experiment: FA protein titrations in presence of 100 μM fragment, 13 representative 14-3-3/peptide interactions; conditions: 14-3-3γ titrations
T12 construct: the full length 14-3-3γ was dialysis against 25 mM HEPES pH 7.5; made in house; host or cells: E. coli BL21(DE3), pPROEX HTb
Description: FIGS. 22A-22F. […] FIG. 22A: Radar plot of the SFs determined by FA protein titrations in presence of 100 μM fragment. […] Right: close-up. FIG. 22B: The SF values determined with 14-3-3γ titrations in presence of 100 μM 13, 27 or 28 in FA assays (n=2). FIG. 22C: Structural overlay of the known 14-3-3 binding epitopes used in this study. FIG. 22D: Overlay of the binding pose of 13, 27 and 28 (line representation) with the AS160 binding epitope (PDB: 7NIX). FIG. 22E: Overlay of crystal structures of 13 (2Fo-Fc map at 1 as mesh) binding to the p65_45 (violet sticks, carton)/14-3-3γ complex (PDB: 7NQP) and the CFTR (cyan sticks, cartoon)/14-3-3 complex (PDB: 5D3F, FC-A hidden for clarity). Hydrophobic contacts between 13 and Ile+1 of p65 and Val+1 of CFTR are indicated by transparent spheres.

[13] = molecular target: T13, 14-3-3/p65 (Homo sapiens, UniProt P61981); experiment: Cooperativity analysis of the 14-3-3/p65/28 complex; conditions: 1 mM compound; saturation not achieved
T13 construct: the full length 14-3-3γ was dialysis against 25 mM HEPES pH 7.5; made in house; host or cells: E. coli BL21(DE3), pPROEX HTb
T13 sequence (as listed by the source partner, one chain of several): as the sequence (as listed by the source partner, one chain of several) above
Description: Finally, we performed a cooperativity analysis of the 14-3-3/p65/28 complex to investigate how these structural observations translate to cooperativity. For the 14-3-3/p65/28 complex, saturation of the system was not achieved at concentration ≤1 mM with SF1 mM=37. […] The cooperative interactions within the 14-3-3/Pin1/28 complex are thus significant driving factors for the selective stabilization.

cooperativity factor (α-factor) [1] | stabilization, C-Raf [2] | stabilization, B-Raf_729 [3] | stabilization, TBC1D237 [4] | stabilization, ERRγ_179 [5] | stabilization, Mypt1_472 [6] | stabilization, ERα [7] | stabilization of the Raptor/14-3-3γ binary complex [8] | stabilizing activity, Abl1pT735 [9] | stabilizing activity, p65pS45 [10] | SF, CFTR [11] | stabilizing activity, CFTRpS753 [11] | concentration necessary to induce a 2-fold increase in PPI stabilization [1] | stabilization of the Pin1/14-3-3 complex [1] | SMILES | selectivity of stabilization among 13 14-3-3/peptide interactions [12] | SF1 mM [13]
approximately 60 | abolishes any stabilizing effect | no significant stabilization | no significant stabilization | no significant stabilization | no significant stabilization | not responsive to fragment stabilization | 9.5 fold | some stabilizing activity | some stabilizing activity | 12.5 | some stabilizing activity | – | – | O=Cc1ccc(-n2ccnc2-c2cc(Br)ccc2F)cc1Br [compound 27, 2-bromo-4-(2-(5-bromo-2-fluorophenyl)-1H-imidazol-1-yl)benzaldehyde] | – | –
270 | abolishes any stabilizing effect | no significant stabilization | no significant stabilization | no significant stabilization | no significant stabilization | not responsive to fragment stabilization | – | no significant complex stabilization | no significant complex stabilization | – | no significant complex stabilization | 1 µM | 270 fold | O=Cc1ccc(-n2ccnc2-c2ccc(F)cc2F)cc1Br [compound 28, 2-bromo-4-(2-(2,4-difluorophenyl)-1H-imidazol-1-yl)benzaldehyde] | selective stabilization of the 14-3-3/Pin1_72 complex | 37
